In US20180118718A1, “Substituted Quinoxaline Derivatives” (Selvita S.A., priority 2015, published 2018):

Biological target: T1, Human recombinant His-tagged PFKFB3 (Homo sapiens, UniProt Q16875)
T1 construct: His; made in house
Experiment: PFKFB3 IC50 Determination Assay (in vitro kinase assay, modified ADP-Glo system)
Type: biochemical
Conditions: ATP 20 μM and fructose-6-phosphate 2 μM (Km), 25 nM PFKFB3, 2 h, rt, ADP-Glo luminescence
Method: PFKFB3 IC50 Determination Assay
In vitro kinase assay used to determine IC50 values for tested inhibitors is based on a modified ADP-Glo™ system (Promega) and consists of two parts:
1. Kinase reaction—performed in optimized conditions. At this step PFKFB3 phosphorylates its substrate Fructose-6-phosphate using ATP as a source of phosphate to produce Fructose-2,6-bisphosphate and ADP. Reaction is performed at Km values for ATP and substrate using optimized buffer composition and time of the reaction. Human recombinant His-tagged PFKFB3 (PFKFB3 BATCH II SEC) with confirmed activity is produced and purified in-house. 2. Detection of ADP as a product of the reaction using ADP-Glo™ system. This part is conducted by using the commercially available kit ADP-Glo™ Kinase Assay (Promega, cat. No# V9103) according to manufacturer's instruction, modified by 5x dilutions of assay reagents (both ADP-Glo™ Reagent and Kinase Detection Solution).
Test compounds are dissolved in DMSO and then transferred to the V-bottom 96-well plate.
15 μL per well of Mix 1 is transferred to assay wells of 96-well white plate. […] Total reaction volume is 30 μL per well. Samples are tested in duplicates. Final concentration of DMSO in the reaction is 6.7%. Conditions needed for performing PFKFB3 (PFKFB3 BATCH II SEC) in vitro kinase assay are given below:
This protocol is based on Technical Bulletin, ADP-Glo™ Kinase Assay (Promega) and is adapted to 96-well plate containing 30 μL reaction mixture:
30 μL of 5x diluted ADP-Glo™ Reagent is added to each well of 96-well plate containing 30 μL of reaction mixture. The plate is incubated for 90 minutes on a shaker at RT. 60 μL of 5x diluted Kinase Detection Solution is added to each well of 96-well plate containing 60 μL of the solution (ratio of kinase reaction volume to ADP-Glo™ Reagent volume to Kinase Detection Solution volume is maintained at 1:1:2). Plate is incubated for 40 minutes on a shaker at RT, protected from light. Luminescence is measured in the plate reader Synergy 2 (BioTek).
Luminescent readouts for compounds tested in 10 concentrations (routinely from 100 μM to […], […] serial dilutions) in duplicates, as well as for positive control, are first normalized to no-substrate negative control by its subtraction. In the next step, % of normalized positive control is calculated for each data point and plotted against test compound concentration:
% of control percent of positive control normalized to no-substrate negative control Lumcpd luminescence of test compound Lumneg luminescence of no-substrate negative control Lumpos luminescence of positive control
IC50 parameter is determined by the GraphPad Prism 5.0 software [log(inhibitor) vs. response −Variable slope (four parameters)].

T1 sequence (Q16875 whole entry): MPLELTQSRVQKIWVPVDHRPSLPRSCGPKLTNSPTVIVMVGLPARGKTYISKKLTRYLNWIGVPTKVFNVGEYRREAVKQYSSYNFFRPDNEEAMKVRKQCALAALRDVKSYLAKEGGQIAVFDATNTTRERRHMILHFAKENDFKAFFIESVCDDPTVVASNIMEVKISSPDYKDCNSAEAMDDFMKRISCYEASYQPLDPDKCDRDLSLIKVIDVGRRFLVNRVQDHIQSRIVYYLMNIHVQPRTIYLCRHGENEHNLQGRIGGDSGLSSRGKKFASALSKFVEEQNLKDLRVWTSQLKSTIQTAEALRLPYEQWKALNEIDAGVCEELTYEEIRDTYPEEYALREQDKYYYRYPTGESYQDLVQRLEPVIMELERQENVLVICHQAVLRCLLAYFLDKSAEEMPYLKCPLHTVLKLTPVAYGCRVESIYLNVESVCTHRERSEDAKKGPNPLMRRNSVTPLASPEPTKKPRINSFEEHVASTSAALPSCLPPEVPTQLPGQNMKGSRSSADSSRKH

Row | IC50 | SMILES
1 | 1000 to 10000 nM | CC(=O)N1CCN(c2ccc(S(C)(=O)=O)c(Nc3cc(-c4ccc5ccn(C)c5c4)c4nccnc4c3)c2)CC1 [Example 46, 1-[4-(4-Methanesulfonyl-3-{[8-(1-methyl-1H-indol-6-yl)quinoxalin-6-yl]amino}phenyl)piperazin-1-yl]ethan-1-one]
2 | 1 to 1000 nM | Cn1ccc2ccc(-c3cc(Oc4cnccc4C#N)cc4nccnc34)cc21 [Example 47, 3-{[8-(1-Methyl-1H-indol-6-yl)quinoxalin-6-yl]oxy}pyridine-4-carbonitrile]
3 | 10000 to 100000 nM | CS(=O)(=O)c1ccncc1Nc1cc(-c2cccc(-c3cn[nH]n3)c2)c2nccnc2c1 [Example 48, N-(4-Methanesulfonylpyridin-3-yl)-8-[3-(1H-1,2,3-triazol-4-yl)phenyl]quinoxalin-6-amine]
4 | 1000 to 10000 nM | Cc1cccc(-c2cc(Nc3cnccc3S(C)(=O)=O)cc3nccnc23)c1 [Example 51, N-(4-Methanesulfonylpyridin-3-yl)-8-(3-methylphenyl)quinoxalin-6-amine]
5 | 1 to 1000 nM | CNc1ccc(S(C)(=O)=O)c(Nc2cc(-c3ccc4ccn(C)c4c3)c3nccnc3c2)c1 [Example 57, 4-Methanesulfonyl-N1-methyl-N3-[8-(1-methyl-1H-indol-6-yl)quinoxalin-6-yl]benzene-1,3-diamine]
6 | 10000 to 100000 nM | CS(=O)(=O)c1ccncc1Nc1cc(-c2ccc3occ(CCl)c3c2)c2nccnc2c1 [Example 58, 8-[3-(Chloromethyl)-1-benzofuran-5-yl]-N-(4-methanesulfonylpyridin-3-yl)quinoxalin-6-amine]
7 | 1 to 1000 nM | Cn1ccc2ccc(-c3cc(Nc4cnccc4S(C)(=O)=O)cc4nccnc34)c(F)c21 [Example 59, 8-(7-Fluoro-1-methyl-1H-indol-6-yl)-N-(4-methanesulfonylpyridin-3-yl)quinoxalin-6-amine]
8 | 10000 to 100000 nM | CS(=O)(=O)c1ccncc1Nc1cc(-c2ccc3nc[nH]c3c2)c2nccnc2c1 [Example 61, 8-(1H-1,3-Benzodiazol-5-yl)-N-(4-methanesulfonylpyridin-3-yl)quinoxalin-6-amine]
9 | 1000 to 10000 nM | CCc1cccc(-c2cc(Nc3cnccc3S(C)(=O)=O)cc3nccnc23)c1 [Example 65, 8-(3-Ethylphenyl)-N-(4-methanesulfonylpyridin-3-yl)quinoxalin-6-amine]
10 | 1000 to 10000 nM | Cc1ccc(N)c(-c2cc(Nc3cnccc3S(C)(=O)=O)cc3nccnc23)c1 [Example 66, 8-(2-Amino-5-methylphenyl)-N-(4-methanesulfonylpyridin-3-yl)quinoxalin-6-amine]
11 | 1000 to 10000 nM | Cc1ccc(O)c(-c2cc(Nc3cnccc3S(C)(=O)=O)cc3nccnc23)c1 [Example 67, 2-{7-[(4-Methanesulfonylpyridin-3-yl)amino]quinoxalin-5-yl}-4-methylphenol]
12 | 1 to 1000 nM | Cn1ccc2ccc(-c3cc(Nc4cnccc4-c4nn[nH]n4)cc4nccnc34)cc21 [Example 68, 8-(1-Methyl-1H-indol-6-yl)-N-[4-(1H-1,2,3,4-tetrazol-5-yl)pyridin-3-yl]quinoxalin-6-amine]
13 | 1 to 1000 nM | Cn1ccc2ccc(-c3cc(Nc4cnccc4Cl)cc4nccnc34)cc21 [Example 69, N-(4-Chloropyridin-3-yl)-8-(1-methyl-1H-indol-6-yl)quinoxalin-6-amine]
14 | 1 to 1000 nM | Cc1coc2ccc(-c3cc(Nc4c[n+]([O-])ccc4S(C)(=O)=O)cc4nccnc34)cc12 [Example 72, 4-Methanesulfonyl-3-{[8-(3-methyl-1-benzofuran-5-yl)quinoxalin-6-yl]amino}pyridin-1-ium-1-olate]
15 | 1 to 1000 nM | Cn1ccc2cc(F)c(-c3cc(Nc4cnccc4S(C)(=O)=O)cc4nccnc34)cc21 [Example 73, 8-(5-Fluoro-1-methyl-1H-indol-6-yl)-N-(4-methanesulfonylpyridin-3-yl)quinoxalin-6-amine]
16 | 1000 to 10000 nM | COc1ccc(C)cc1-c1cc(Nc2cnccc2S(C)(=O)=O)cc2nccnc12 [Example 74, N-(4-Methanesulfonylpyridin-3-yl)-8-(2-methoxy-5-methylphenyl)quinoxalin-6-amine]
17 | 1 to 1000 nM | Cc1ccc(-c2cc(Nc3cnccc3S(C)(=O)=O)cc3nccnc23)cc1N [Example 75, 8-(3-Amino-4-methylphenyl)-N-(4-methanesulfonylpyridin-3-yl)quinoxalin-6-amine]
18 | 1 to 1000 nM | Cn1ccc2ccc(-c3cc(Nc4ncccc4S(C)(=O)=O)cc4nccnc34)cc21 [Example 81, N-(3-Methanesulfonylpyridin-2-yl)-8-(1-methyl-1H-indol-6-yl)quinoxalin-6-amine]
19 | 1 to 1000 nM | CC(=O)N1CCN(c2ccncc2Nc2cc(-c3ccc4ccn(C)c4c3)c3nccnc3c2)CC1 [Example 82, 1-[4-(3-{[8-(1-Methyl-1H-indol-6-yl)quinoxalin-6-yl]amino}pyridin-4-yl)piperazin-1-yl]ethan-1-one]
20 | 1 to 1000 nM | Cn1cnc(-c2ccncc2Nc2cc(-c3ccc4ccn(C)c4c3)c3nccnc3c2)c1 [Example 83, N-[4-(1-Methyl-1H-imidazol-4-yl)pyridin-3-yl]-8-(1-methyl-1H-indol-6-yl)quinoxalin-6-amine]
21 | 1 to 1000 nM | Cn1ccc2ccc(-c3cc(Nc4cncc5c4OCCN5)cc4nccnc34)cc21 [Example 84, 8-(1-Methyl-1H-indol-6-yl)-N-{2H,3H,4H-pyrido[4,3-b][1,4]oxazin-8-yl}quinoxalin-6-amine]
22 | 1000 to 10000 nM | Cn1ccc2ccc(-c3cc(Nc4c[n+]([O-])ccc4C#N)cc4nccnc34)cc21 [Example 90, 4-Cyano-3-{[8-(1-methyl-1H-indol-6-yl)quinoxalin-6-yl]amino}pyridin-1-ium-1-olate]
23 | 1000 to 10000 nM | CN(c1cc(-c2ccc3ccn(C)c3c2)c2nccnc2c1)c1cnccc1C#N [Example 91, 3-{Methyl[8-(1-methyl-1H-indol-6-yl)quinoxalin-6-yl]amino}pyridine-4-carbonitrile]
24 | 1000 to 10000 nM | Cn1nccc1-c1ccc(S(C)(=O)=O)c(Nc2cc(-c3ccc4ccn(C)c4c3)c3nccnc3c2)c1 [Example 93, N-[2-Methanesulfonyl-5-(1-methyl-1H-pyrazol-5-yl)phenyl]-8-(1-methyl-1H-indol-6-yl)quinoxalin-6-amine]
25 | 1 to 1000 nM | Cn1ccc2ccc(-c3cc(Nc4cc(-c5ncco5)ccc4S(C)(=O)=O)cc4nccnc34)cc21 [Example 94, N-[2-Methanesulfonyl-5-(1,3-oxazol-2-yl)phenyl]-8-(1-methyl-1H-indol-6-yl)quinoxalin-6-amine]
26 | 1000 to 10000 nM | CN(c1cc(-c2ccc3ccn(C)c3c2)c2nccnc2c1)c1cnccc1C(N)=O [Example 95, 3-{Methyl[8-(1-methyl-1H-indol-6-yl)quinoxalin-6-yl]amino}pyridine-4-carboxamide]
27 | 1 to 1000 nM | Cn1ccc2ccc(-c3cc(Nc4cnccc4C(=O)Nc4ccccc4)cc4nccnc34)cc21 [Example 96, 3-{[8-(1-Methyl-1H-indol-6-yl)quinoxalin-6-yl]amino}-N-phenylpyridine-4-carboxamide]
28 | 1 to 1000 nM | Cc1coc2ccc(-c3cc(Nc4cc(N)ccc4S(C)(=O)=O)cc4nccnc34)cc12 [Example 102, 6-Methanesulfonyl-N1-[8-(3-methyl-1-benzofuran-5-yl)quinoxalin-6-yl]benzene-1,3-diamine]
29 | 1000 to 10000 nM | Cc1coc2ccc(-c3cc(Nc4cc([N+](=O)[O-])ccc4S(C)(=O)=O)cc4nccnc34)cc12 [Example 103, N-(2-methanesulfonyl-5-nitrophenyl)-8-(3-methyl-1-benzofuran-5-yl)quinoxalin-6-amine]
